Results reported in US20150305334A1, “USE OF SUBSTITUTED 1-(ARYL ETHYNYL)-, 1-(HETEROARYL ETHYNYL)-, 1-(HETEROCYCLYL ETHYNYL)- AND 1-(CYCLOALKENYL ETHYNYL)-CYCLOHEXANOLS AS ACTIVE AGENTS AGAINST ABIOTIC PLANT STRESS” (BAYER CROPSCIENCE AG, priority 2012, published 2015).

Assays:
Type in all cases: in vivo
[1] = system: Zea mays; test: Drought stress test on greenhouse crop plants, spray application, efficacy vs untreated stressed control (ZEAMX); settings: dosage 25 g/ha
Protocol: (§1) Seeds of monocotyledonous and dicotyledonous crop plants were laid out in sandy loam in wood-fiber pots, covered with soil or sand and cultivated in a greenhouse under good growth conditions. The test plants were treated at the early leaf stage (BBCH10-BBCH13). To assure uniform water supply before commencement of stress, the potted plants were supplied with water by dam irrigation prior to substance application. The compounds according to the invention, formulated in the form of wettable powders (WP), were sprayed onto the green parts of the plants as an aqueous suspension at an equivalent water application rate of 600 l/ha with addition of 0.2% wetting agent (e.g. agrotin). Substance application was followed immediately by stress treatment of the plants. For this purpose, the pots were transferred into plastic inserts in order to prevent them from subsequently drying out too quickly. […] After the recovery phase had ended, the intensities of damage were analyzed in visual comparison to untreated, unstressed controls of the same age. The intensity of damage was first recorded as a percentage (100%=plants have died, 0%=like control plants). […] EF: efficacy (%) DVus: damage value of the untreated, stressed control DVts: damage value of the plants treated with test compound In each trial, 3 pots per crop and dosage were treated and evaluated; the resulting efficacies are thus averages. […]

[2] = system: Triticum aestivum; test: Drought stress test on greenhouse crop plants, spray application, efficacy vs untreated stressed control (TRZAS); settings: dosage 25 g/ha
Protocol: as §1

[3] = system: Brassica napus; test: Drought stress test on greenhouse crop plants, spray application, efficacy vs untreated stressed control (BRSNS); settings: dosage 250 g/ha
Protocol: as §1

Structure (SMILES) | EF (ZEAMX) [1] [%] | EF (TRZAS) [2] [%] | EF (BRSNS) [3] [%]
COC(=O)c1ccccc1C#CC1(O)C(C)CCCC1(C)C (centres unmarked) [I.1-116, Methyl 2-[(1-hydroxy-2,2,6-trimethylcyclohexyl)ethynyl]benzoate] | >5 | >5 | >5
COC(=O)c1ccccc1C#CC1(O)C(C)CCCC1C (centres unmarked) [I.13-116, Methyl 2-[(1-hydroxy-2,6-dimethylcyclohexyl)ethynyl]benzoate] | >5 |  | 
CC1CCCC(C)(C)C1(O)C#Cc1ccccc1C(=O)O (centres unmarked) [I.1-107, 2-[(1-Hydroxy-2,2,6-trimethylcyclohexyl)ethynyl]benzoic acid] |  |  | >5
